Columns and labels:
[1] = target: T1, recombinant human serotonin receptor 5-HT2A (Homo sapiens, UniProt P28223); experiment: 5-HT2A antagonist Ca2+ assay in CHO-K1 cells (method A aequorin luminescence / method B FLIPR fluorescence); format: cell-based; conditions: antagonist mode vs EC80 of reference agonist, method A or B, read-out: 5HT2A IC50
T1 construct: expressed in transfected cells; method B: loaded with Ca2+ dye
Method in brief: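 IC50 was obtained by nonlinear regression of percent inhibition of the EC80 agonist Ca2+ response in CHO-K1 cells stably expressing human 5-HT2A. The readout was aequorin luminescence with agonist injected 15 min after compound (A), or Ca2+-dye fluorescence on FLIPR with serotonin as agonist (B).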

[2] = target: human sodium channel NaV1.2 (Homo sapiens, UniProt Q99250); experiment: NaV1.2 inhibition, automated patch-clamp (Q-Patch HTX), slow inactivated state (state C); format: cell-based; conditions: hNaV1.2 CHO cells, slow inactivated state; for inhibition at 1 µM: 1 μM compound, read-out: NaV1.2 (% inh), 1 μM; for inhibition at 10 µM: 10 μM compound, read-out: NaV1.2 (% inh), 10 μM; for IC50: read-out: NaV1.2 IC50
Sequence of human sodium channel NaV1.2 (Q99250 whole entry): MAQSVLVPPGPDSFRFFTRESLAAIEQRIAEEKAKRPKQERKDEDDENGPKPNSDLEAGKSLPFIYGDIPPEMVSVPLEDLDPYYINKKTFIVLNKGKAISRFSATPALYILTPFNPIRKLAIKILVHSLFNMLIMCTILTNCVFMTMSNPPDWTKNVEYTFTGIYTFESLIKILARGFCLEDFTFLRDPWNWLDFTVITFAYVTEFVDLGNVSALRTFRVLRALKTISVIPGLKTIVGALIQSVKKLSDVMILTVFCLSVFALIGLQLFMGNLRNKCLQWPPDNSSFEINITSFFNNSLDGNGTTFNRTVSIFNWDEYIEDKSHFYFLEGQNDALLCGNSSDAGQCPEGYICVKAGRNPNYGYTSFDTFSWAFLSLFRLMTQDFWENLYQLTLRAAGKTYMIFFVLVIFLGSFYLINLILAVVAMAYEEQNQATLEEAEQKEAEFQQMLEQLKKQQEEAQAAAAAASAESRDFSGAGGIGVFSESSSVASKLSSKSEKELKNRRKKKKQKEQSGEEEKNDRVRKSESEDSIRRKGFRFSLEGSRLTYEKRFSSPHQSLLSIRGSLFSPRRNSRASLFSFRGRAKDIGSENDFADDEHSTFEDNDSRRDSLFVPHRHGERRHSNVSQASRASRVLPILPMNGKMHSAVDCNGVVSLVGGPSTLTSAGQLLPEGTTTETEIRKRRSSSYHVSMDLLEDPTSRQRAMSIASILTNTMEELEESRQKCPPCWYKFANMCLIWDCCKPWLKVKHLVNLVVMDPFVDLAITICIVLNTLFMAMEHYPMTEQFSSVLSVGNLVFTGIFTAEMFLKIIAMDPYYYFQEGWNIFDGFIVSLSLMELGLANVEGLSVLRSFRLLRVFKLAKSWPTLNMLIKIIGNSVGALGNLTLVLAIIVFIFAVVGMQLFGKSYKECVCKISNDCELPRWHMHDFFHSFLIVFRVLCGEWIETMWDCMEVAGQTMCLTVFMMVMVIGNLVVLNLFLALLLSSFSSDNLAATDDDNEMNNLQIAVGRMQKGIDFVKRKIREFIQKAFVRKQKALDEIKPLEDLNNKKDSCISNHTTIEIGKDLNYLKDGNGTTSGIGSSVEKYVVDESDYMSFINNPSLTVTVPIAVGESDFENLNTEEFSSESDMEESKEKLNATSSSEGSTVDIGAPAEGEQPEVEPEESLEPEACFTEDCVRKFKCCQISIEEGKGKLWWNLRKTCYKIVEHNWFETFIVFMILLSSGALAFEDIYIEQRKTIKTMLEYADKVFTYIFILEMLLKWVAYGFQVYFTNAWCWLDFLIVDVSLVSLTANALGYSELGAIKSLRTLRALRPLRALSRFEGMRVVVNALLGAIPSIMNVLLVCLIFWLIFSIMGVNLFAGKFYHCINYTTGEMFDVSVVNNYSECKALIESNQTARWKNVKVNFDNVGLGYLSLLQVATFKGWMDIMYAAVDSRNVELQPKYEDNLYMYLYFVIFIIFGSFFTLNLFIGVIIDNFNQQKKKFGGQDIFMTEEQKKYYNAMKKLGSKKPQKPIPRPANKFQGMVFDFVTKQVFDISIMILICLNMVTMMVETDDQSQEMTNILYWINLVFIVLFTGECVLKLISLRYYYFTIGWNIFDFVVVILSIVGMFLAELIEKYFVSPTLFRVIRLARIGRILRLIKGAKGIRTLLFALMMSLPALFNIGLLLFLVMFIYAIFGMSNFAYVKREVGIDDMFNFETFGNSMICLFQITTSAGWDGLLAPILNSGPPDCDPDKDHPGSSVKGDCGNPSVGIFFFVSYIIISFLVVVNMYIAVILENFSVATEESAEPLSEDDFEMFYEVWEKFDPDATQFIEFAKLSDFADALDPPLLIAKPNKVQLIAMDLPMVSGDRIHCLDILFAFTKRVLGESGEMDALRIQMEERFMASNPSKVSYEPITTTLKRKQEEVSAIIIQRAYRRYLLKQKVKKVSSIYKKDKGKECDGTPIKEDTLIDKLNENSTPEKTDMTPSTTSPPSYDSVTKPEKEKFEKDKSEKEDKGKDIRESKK
Method in brief: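 IC50 comes from a least-squares fit of percent inhibition, relative to vehicle, of current in the slow-inactivated state. That state is reached by a 10 s prepulse to −50 mV, then 15 ms at −90 mV, then a 5 ms test pulse to 0 mV. Human NaV1.2 in stable CHO K-1 cells, held at −100 mV, automated patch clamp.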

T1 sequence (P28223 whole entry): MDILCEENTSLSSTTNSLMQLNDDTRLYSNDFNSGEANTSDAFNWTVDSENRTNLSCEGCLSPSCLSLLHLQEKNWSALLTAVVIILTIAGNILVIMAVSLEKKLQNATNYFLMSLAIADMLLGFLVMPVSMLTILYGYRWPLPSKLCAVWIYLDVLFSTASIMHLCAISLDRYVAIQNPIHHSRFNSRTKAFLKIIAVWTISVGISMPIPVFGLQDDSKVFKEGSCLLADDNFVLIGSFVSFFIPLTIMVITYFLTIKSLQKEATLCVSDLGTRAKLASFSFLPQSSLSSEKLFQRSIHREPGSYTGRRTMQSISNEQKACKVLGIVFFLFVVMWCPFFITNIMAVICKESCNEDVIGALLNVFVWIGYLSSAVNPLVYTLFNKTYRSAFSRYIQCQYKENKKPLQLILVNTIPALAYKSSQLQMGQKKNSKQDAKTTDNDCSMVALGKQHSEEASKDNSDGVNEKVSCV

Row | SMILES | IC50 [1] | inhibition at 1 µM [2] | inhibition at 10 µM [2] | IC50 [2]
1 | c1ccc2c(c1)CCC1(CCN(CC3Cc4cccnc4C3)CC1)O2 (stereo not shown) [Example 411, 1′-((6,7-dihydro-5H-cyclopenta[b]pyridin-6-yl)methyl)spiro[chromane-2,4′-piperidine]] | 1200 nM | 37% | – | –
2 | c1ccc2c(c1)CCC1(CCN(CC3Cc4ccncc4C3)CC1)O2 (stereo not shown) [Example 412, 1′-((6,7-dihydro-5H-cyclopenta[c]pyridin-6-yl)methyl)spiro[chromane-2,4′-piperidine]] | 1860 nM | 18% | – | –
3 | c1ccc2c(c1)CCC1(CCN(CC3COCc4ccccc43)CC1)O2 (stereo not shown) [Example 414, 1′-(isochroman-4-ylmethyl)spiro[chromane-2,4′-piperidine]] | 260 nM | 29% | – | –
4 | COc1cccc(CN2CCC3(CCc4ccccc4O3)CC2)c1 [Example 417, 1′-(3-methoxybenzyl) spiro[chromane-2,4′-piperidine]] | 690 nM | – | 94% | –
5 | c1ccc2c(c1)CCC1(CCN(CCC3CCc4ccccc43)CC1)O2 (stereo not shown) [Example 418, 1′-(2-(2,3-dihydro-1H-inden-1-yl)ethyl)spiro[chromane-2,4′-piperidine]] | 160 nM | – | – | 1130 nM
6 | c1ccc2c(c1)CCC1(CCN(CCC3Cc4cccnc4C3)CC1)O2 (stereo not shown) [Example 419, 1′-(2-(6,7-dihydro-5H-cyclopenta[b]pyridin-6-yl)ethyl)spiro[chromane-2,4′-piperidine]] | 220 nM | 6% | – | –
7 | c1ccc2c(c1)CCC1(CCN(CCC3Cc4ccncc4C3)CC1)O2 (stereo not shown) [Example 420, 1′-(2-(6,7-dihydro-5H-cyclopenta[c]pyridin-6-yl)ethyl)spiro[chromane-2,4′-piperidine]] | 250 nM | 0% | – | –
8 | c1ccc2c(c1)CCC1(CCN(CCC3COCc4ccccc43)CC1)O2 (stereo not shown) [Example 421, 1′-(2-(isochroman-4-yl)ethyl)spiro[chromane-2,4′-piperidine]] | 130 nM | 29% | – | –
9 | O=C1c2ccccc2CCN1CCN1CCC2(CCc3ccccc3O2)CC1 [Example 422, 2-(2-(spiro[chromane-2,4′-piperidin]-1′-yl)ethyl)-3,4-dihydroisoquinolin-1(2H)-one] | 70 nM | – | – | 400 nM
10 | C[C@@H]1C[C@@]2(CCc3ccccc3O2)CCN1CCN1CCc2ccccc2C1=O [Example 426, 2-(2-((2R,2′R)-2′-methylspiro[chromane-2,4′-piperidin]-1′-yl)ethyl)-3,4-dihydroisoquinolin-1(2H)-one] | 160 nM | 41% | – | –
11 | COc1ccccc1CCN1CCC2(CCc3ccccc3O2)CC1 [Example 428, 1′-(2-methoxyphenethyl) spiro[chromane-2,4′-piperidine]] | 190 nM | – | 86% | –
12 | COc1cccc(CCN2CCC3(CCc4ccccc4O3)CC2)c1 [Example 429, 1′-(3-methoxyphenethyl) spiro[chromane-2,4′-piperidine]] | 370 nM | – | – | 1340 nM
13 | c1ccc2c(c1)CCC1(CCN(CCO[C@H]3CCc4ccccc43)CC1)O2 [Example 432] | 150 nM | – | – | 360 nM
14 | OC(COC1CCCCC1)CN1CCC2(CCc3ccccc3O2)CC1 (stereo not shown) [Example 436, 1-(cyclohexyloxy)-3-(spiro[chromane-2,4′-piperidin]-1′-yl)propan-2-ol] | 20 nM | – | – | 260 nM
15 | O[C@H](COC1CCCCC1)CN1CCC2(CCc3ccccc3O2)CC1 [Example 437, (S)-1-(cyclohexyloxy)-3-(spiro[chromane-2,4′-piperidin]-1′-yl)propan-2-ol] | 90 nM | – | – | 3410 nM
16 | O[C@@H](COC1CCCCC1)CN1CCC2(CCc3ccccc3O2)CC1 [Example 438, (R)-1-(cyclohexyloxy)-3-(spiro[chromane-2,4′-piperidin]-1′-yl)propan-2-ol] | 150 nM | – | – | 1310 nM
17 | OC(COc1ccccc1)CN1CCC2(CCc3ccccc3O2)CC1 (stereo not shown) [Example 439, 1-phenoxy-3-(spiro[chromane-2,4′-piperidin]-1′-yl)propan-2-ol] | 10 nM | – | – | 500 nM

Reference: patent US11186564B2, “Dual NAV1.2/5HT2a inhibitors for treating CNS disorders” (Sunovion Pharmaceuticals Inc., priority 2016, dated 2021)
